US20240287368A1, “COMPOSITION CONTAINING REFRIGERANT, USE OF SAME, REFRIGERATOR HAVING SAME, AND METHOD FOR OPERATING SAID REFRIGERATOR” (DAIKIN INDUSTRIES, LTD., priority 2021, published 2024)

Columns and labels:
[1] = Occupational exposure limit (OEL) and ASHRAE toxicity class of mixed refrigerant, calculated from component OELs and mole fractions; conditions: ANSI/ASHRAE Standard 34-2019; for Occupational exposure limit: center composition of mixed refrigerant
Excerpt: In the present specification, a “toxicity class A” refrigerant means that the occupational exposure limit (OEL) of the mixed refrigerant is 400 ppm or more in accordance with the US ANSI/ASHRAE Standard 34-2019. A “toxicity class B” refrigerant means that the occupational exposure limit of the mixed refrigerant is less than 400 ppm in accordance with the US ANSI/ASHRAE Standard 34-2019.
In the present disclosure, the occupational exposure limit (OEL) of a mixed refrigerant refers to a value evaluated based on the center composition, unless otherwise specified. However, calculation is performed with the OEL of each refrigerant as follows. • R32: 1000 ppm • R152a: 1000 ppm • HFO-1132(E): 350 ppm
The OEL of the center composition of a mixed refrigerant is calculated in accordance with the following formula.
wherein an represents the OEL of each refrigerant compound, and mfn represents the mole fraction of each refrigerant compound.
The occupational exposure limit (OEL value) of each mixed refrigerant was investigated.

[2] = component values used for the calculation; cited from earlier work

Row | SMILES | ASHRAE toxicity class [1] | Occupational exposure limit [1] [ppm] | OEL of each refrigerant [2] [ppm]
1 | CC(F)F [0-2, 1,1-difluoroethane] | A (the occupational exposure limit (OEL) of the mixed refrigerant is 400 ppm or more) | 1000 | –
2 | FCF [0-3, difluoromethane] | A (the occupational exposure limit (OEL) of the mixed refrigerant is 400 ppm or more) | 1000 | 1000
3 | F/C=C/F [0-1, trans-1,2-difluoroethylene] | B (the occupational exposure limit of the mixed refrigerant is less than 400 ppm) | 350 | 350
